Test results: US6875769B2, “Substituted6,6-hetero-bicyclicderivatives” (Pfizer Inc., priority 1997, dated 2005)

melting point | Compound
105 to 107 °C | CCC(CC)Oc1cc(C)nc2c1c(=O)[nH]c(=O)n2-c1c(C)cc(C)cc1C [Example 18, 5-(1-Ethyl-propoxy)-7-methyl-1-(2,4,6-trimethyl-phenyl)-1H-pyrido[2,3-d]pyrimidine-2,4-dione]
124 to 126 °C | CCC(CC)Nc1cc(C)nc2c1CCC(=O)N2c1c(C)cc(C)cc1C [Example 12, 5-(1-Ethyl-propylamino)-7-methyl-1-(2,4,6-trimethyl-phenyl)-3,4-dihydro-1H-[1,8]naphthyridin-2-one]
125 to 127 °C | CCC(CC)Oc1cc(C)nc2c1c(Cl)nc(=O)n2-c1c(C)cc(C)cc1C [Example 17, 4-Chloro-5-(1-ethyl-propoxy)-7-methyl-1-(2,4,6-trimethyl-phenyl)-1H-pyrido[2,3-d]pyrimidin-2-one]
